{"source": "ChEMBL document CHEMBL5252650", "about": "“An ATG4B inhibitor blocks autophagy and sensitizes Sorafenib inhibition activities in HCC tumor cells” (Bioorg Med Chem, 2023)", "key": {"Huh-7 [1]": {"system": "Huh-7", "assay": "Inhibition of autophagy in human Huh-7 cells assessed as fold increase in p62 protein expression at 20 uM incubated for 24 hrs by immunoblot analysis relative to control", "type": "functional"}, "Huh-7 [2]": {"system": "Huh-7", "assay": "Potentiation of sorafenib-induced antiproliferative activity against human Huh-7 cells assessed as inhibition of cell proliferation at 20 uM incubated for 5 days in presence of sorafenib by CTG assay", "type": "functional, cell-based", "conditions": "time 5.0 day"}, "SK-HEP1 [3]": {"system": "SK-HEP1", "assay": "Inhibition of autophagy in human SK-HEP1 cells assessed as fold increase in p62 protein expression at 10 uM incubated for 24 hrs by immunoblot analysis relative to control", "type": "functional"}, "[4]": {"assay": "Inhibition of sorafenib-induced autophagic flux in human Huh-7 cells assessed as fold increase in p62 protein expression at 20 uM incubated for 24 hrs in presence of 10 uM sorafenib by immunoblot analysis relative to control", "type": "functional"}, "[5]": {"assay": "Inhibition of sorafenib-induced autophagic flux in human SK-HEP1 cells assessed as fold increase in p62 protein expression at 20 uM incubated for 24 hrs in presence of 10 uM sorafenib by immunoblot analysis relative to control", "type": "functional"}, "IMR-90": {"system": "IMR-90", "assay": "Cytotoxicity against human IMR-90 cells", "type": "toxicity, cell-based"}, "[6]": {"assay": "Inhibition of sorafenib-induced autophagic flux in human SK-HEP1 cells assessed as fold increase in LC3B-II protein expression at 20 uM incubated for 24 hrs in presence of 10 uM sorafenib by immunoblot analysis relative to control", "type": "functional"}, "Huh-7 [7]": {"system": "Huh-7", "assay": "Inhibition of autophagy in human Huh-7 cells assessed as fold increase in LC3B-II protein expression at 10 uM incubated for 24 hrs by immunoblot analysis relative to control", "type": "functional"}, "SK-HEP1 [8]": {"system": "SK-HEP1", "assay": "Inhibition of autophagy in human SK-HEP1 cells assessed as reduction in LC3B-I protein expression at 10 to 20 uM incubated for 24 hrs by immunoblot analysis", "type": "functional, cell-based", "conditions": "dose 10-20 µM"}, "SK-HEP1 [9]": {"system": "SK-HEP1", "assay": "Inhibition of autophagy in human SK-HEP1 cells assessed as fold increase in p62 protein expression at 20 uM incubated for 24 hrs by immunoblot analysis relative to control", "type": "functional"}, "[10]": {"target": "T1, Cysteine protease ATG4B (Homo sapiens) (UniProt Q9Y4P1)", "T1 sequence (whole entry)": "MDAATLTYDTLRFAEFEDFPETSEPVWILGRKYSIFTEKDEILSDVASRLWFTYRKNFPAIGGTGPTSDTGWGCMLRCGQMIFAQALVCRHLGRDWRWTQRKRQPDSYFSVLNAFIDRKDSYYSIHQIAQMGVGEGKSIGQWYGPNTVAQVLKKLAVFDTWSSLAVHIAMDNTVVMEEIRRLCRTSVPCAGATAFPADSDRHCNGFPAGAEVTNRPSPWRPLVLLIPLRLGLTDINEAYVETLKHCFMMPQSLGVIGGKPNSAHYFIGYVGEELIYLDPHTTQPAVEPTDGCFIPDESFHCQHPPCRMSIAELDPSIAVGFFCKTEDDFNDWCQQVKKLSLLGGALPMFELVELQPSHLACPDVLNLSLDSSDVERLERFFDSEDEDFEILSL", "assay": "Inhibition of N-terminal His6/SUMO-tagged full length human ATG4B expressed in Escherichia coli BL21 (DE3) cells assessed as reduction in substrate cleavage using His-LC3B-GST as substrate preincubated with enzyme for 1 hr followed by substrate addition for 30 mins by gel electrophoresis analysis", "conditions": "dose 3.125-50 µM, time 1.5 hrs"}, "SK-HEP1 [11]": {"system": "SK-HEP1", "assay": "Cytotoxicity against human SK-HEP1 cells assessed as reduction in cell viability incubated for 72 hrs by CellTiter-Glo luminescent assay", "type": "functional, cell-based", "conditions": "SK-HEP1, 72 h"}, "Cysteine protease ATG4B [12]": {"target": "T2, Cysteine protease ATG4B (Homo sapiens, UniProt Q9Y4P1)", "T2 sequence (Q9Y4P1 whole entry)": "T1 sequence (whole entry)", "assay": "Binding affinity to N-terminal His6/SUMO-tagged full length human ATG4B expressed in Escherichia coli BL21 (DE3) cells by SPR assay"}, "MRC5": {"system": "MRC5", "assay": "Cytotoxicity against human MRC5 cells", "type": "toxicity, cell-based"}, "SK-HEP1 [13]": {"system": "SK-HEP1", "assay": "Inhibition of colony formation in human SK-HEP1 cells at 10 uM incubated for 14 days in presence of sorafenib by crystal violet staining based analysis", "type": "functional, cell-based", "conditions": "time 14.0 day"}, "Huh-7 [14]": {"system": "Huh-7", "assay": "Inhibition of sorafenib-induced autophagic flux in human Huh-7 cells overexpressing TurboRFP-EGFP-LC3B assessed as increase in yellow dot puncta formation at 10 uM incubated for 24 hrs in presence of 5 uM sorafenib by immunofluorescence assay", "type": "functional, cell-based"}, "Huh-7 [15]": {"system": "Huh-7", "assay": "Inhibition of autophagy in human Huh-7 cells assessed as fold increase in p62 protein expression at 10 uM incubated for 24 hrs by immunoblot analysis relative to control", "type": "functional"}, "Huh-7 [16]": {"system": "Huh-7", "assay": "Inhibition of autophagy in human Huh-7 cells assessed as fold increase in LC3B-II protein expression at 20 uM incubated for 24 hrs by immunoblot analysis relative to control", "type": "functional"}, "[17]": {"assay": "Inhibition of sorafenib-induced autophagic flux in human SK-HEP1 cells assessed as fold increase in LC3B-II protein expression at 20 uM incubated for 24 hrs in presence of 5 uM sorafenib by immunoblot analysis relative to control", "type": "functional"}, "Huh-7 [18]": {"system": "Huh-7", "assay": "Inhibition of colony formation in human Huh-7 cells at 10 uM incubated for 14 days in presence of sorafenib by crystal violet staining based analysis", "type": "functional, cell-based", "conditions": "time 14.0 day"}, "Huh-7 [19]": {"system": "Huh-7", "assay": "Inhibition of autophagy in human Huh-7 cells assessed as reduction in LC3B-I protein expression at 10 to 20 uM incubated for 24 hrs by immunoblot analysis", "type": "functional, cell-based", "conditions": "dose 10-20 µM"}, "[20]": {"target": "T1, Cysteine protease ATG4B (Homo sapiens)", "assay": "Binding affinity to N-terminal His6/SUMO-tagged full length human ATG4B expressed in Escherichia coli BL21 (DE3) cells at 100 uM by CPMG spectroscopy"}, "[21]": {"assay": "Inhibition of sorafenib-induced autophagic flux in human Huh-7 cells assessed as fold increase in p62 protein expression at 20 uM incubated for 24 hrs in presence of 5 uM sorafenib by immunoblot analysis relative to control", "type": "functional"}, "[22]": {"assay": "Inhibition of sorafenib-induced autophagic flux in human Huh-7 cells assessed as fold increase in LC3B-II protein expression at 20 uM incubated for 24 hrs in presence of 5 uM sorafenib by immunoblot analysis relative to control", "type": "functional"}, "SK-HEP1 [23]": {"system": "SK-HEP1", "assay": "Inhibition of autophagy in human SK-HEP1 cells assessed as fold increase in LC3B-II protein expression at 10 uM incubated for 24 hrs by immunoblot analysis relative to control", "type": "functional"}, "Huh-7 [24]": {"system": "Huh-7", "assay": "Cytotoxicity against human Huh-7 cells assessed as reduction in cell viability incubated for 72 hrs by CellTiter-Glo luminescent assay", "type": "functional, cell-based", "conditions": "Huh-7, 72 h"}, "SK-HEP1 [25]": {"system": "SK-HEP1", "assay": "Inhibition of autophagy in human SK-HEP1 cells assessed as fold increase in LC3B-II protein expression at 20 uM incubated for 24 hrs by immunoblot analysis relative to control", "type": "functional"}, "Huh-7 [26]": {"system": "Huh-7", "assay": "Inhibition of autophagy in human Huh-7 cells overexpressing TurboRFP-EGFP-LC3B assessed as increase in number of red dots at 10 uM incubated for 24 hrs by immunofluorescence assay", "type": "functional, cell-based"}, "[27]": {"target": "T1, Cysteine protease ATG4B (Homo sapiens)", "assay": "(§1) Inhibition of N-terminal His6/SUMO-tagged full length human ATG4B expressed in Escherichia coli BL21 (DE3) cells using His-LC3B-GST as substrate preincubated with enzyme for 1 hr followed by substrate addition for 1 hr by HTRF assay", "conditions": "time 2.0 hrs"}, "Cysteine protease ATG4B [28]": {"target": "T2, Cysteine protease ATG4B", "assay": "as §1"}, "SK-HEP1 [29]": {"system": "SK-HEP1", "assay": "Potentiation of sorafenib-induced antiproliferative activity against human SK-HEP1 cells assessed as inhibition of cell proliferation at 20 uM incubated for 5 days in presence of sorafenib by CTG assay", "type": "functional, cell-based", "conditions": "time 5.0 day"}, "Huh-7 [30]": {"system": "Huh-7", "assay": "Inhibition of autophagy in human Huh-7 cells overexpressing TurboRFP-EGFP-LC3B assessed as increase in yellow dot puncta formation at 10 uM incubated for 24 hrs by immunofluorescence assay", "type": "functional, cell-based"}, "[31]": {"assay": "Inhibition of sorafenib-induced autophagic flux in human Huh-7 cells assessed as fold increase in LC3B-II protein expression at 20 uM incubated for 24 hrs in presence of 10 uM sorafenib by immunoblot analysis relative to control", "type": "functional"}, "[32]": {"assay": "Inhibition of sorafenib-induced autophagic flux in human SK-HEP1 cells assessed as fold increase in p62 protein expression at 20 uM incubated for 24 hrs in presence of 5 uM sorafenib by immunoblot analysis relative to control", "type": "functional"}}, "note": "Active and inactive are the calls of the source. The calls are words filed in the database; no cut-off is given here.", "data": [{"compound": "S=C(Nc1ccc2nc(-c3ccco3)c(-c3ccco3)nc2c1)N1CCCCCC1", "values": [{"measurement": "fold change (FC)", "setting": "Huh-7 [1]", "result": 2.8}, {"measurement": "Activity", "setting": "Huh-7 [2]", "result": "Active"}, {"measurement": "fold change (FC)", "setting": "SK-HEP1 [3]", "result": 2.1}, {"measurement": "fold change (FC)", "setting": "[4]", "result": 0.84}, {"measurement": "fold change (FC)", "setting": "[5]", "result": 0.82}, {"measurement": "Activity", "setting": "IMR-90", "result": "Non-Toxic"}, {"measurement": "fold change (FC)", "setting": "[6]", "result": 0.66}, {"measurement": "fold change (FC)", "setting": "Huh-7 [7]", "result": 1.5}, {"measurement": "inhibition", "setting": "SK-HEP1 [8]", "result": "Active"}, {"measurement": "fold change (FC)", "setting": "SK-HEP1 [9]", "result": 2.4}, {"measurement": "inhibition", "setting": "[10]", "result": "Dose-Dependent Effect"}, {"measurement": "IC50", "setting": "SK-HEP1 [11]", "result": 23.6, "unit": "µM"}, {"measurement": "Kd", "setting": "Cysteine protease ATG4B [12]", "result": 14.3, "unit": "µM"}, {"measurement": "Activity", "setting": "MRC5", "result": "Non-Toxic"}, {"measurement": "inhibition", "setting": "SK-HEP1 [13]", "result": "Active"}, {"measurement": "inhibition", "setting": "Huh-7 [14]", "result": "Active"}, {"measurement": "fold change (FC)", "setting": "Huh-7 [15]", "result": 2.3}, {"measurement": "fold change (FC)", "setting": "Huh-7 [16]", "result": 1.6}, {"measurement": "fold change (FC)", "setting": "[17]", "result": 0.82}, {"measurement": "inhibition", "setting": "Huh-7 [18]", "result": "Active"}, {"measurement": "inhibition", "setting": "Huh-7 [19]", "result": "Active"}, {"measurement": "Activity", "setting": "[20]", "result": "Active"}, {"measurement": "fold change (FC)", "setting": "[21]", "result": 1.1}, {"measurement": "fold change (FC)", "setting": "[22]", "result": 0.76}, {"measurement": "fold change (FC)", "setting": "SK-HEP1 [23]", "result": 1.46}, {"measurement": "IC50", "setting": "Huh-7 [24]", "result": 25.3, "unit": "µM"}, {"measurement": "fold change (FC)", "setting": "SK-HEP1 [25]", "result": 1.6}, {"measurement": "inhibition", "setting": "Huh-7 [26]", "result": "Active"}, {"measurement": "inhibition", "setting": "[27]", "result": "Dose-Dependent Effect"}, {"measurement": "IC50", "setting": "Cysteine protease ATG4B [28]", "result": 3.08, "unit": "µM"}, {"measurement": "Activity", "setting": "SK-HEP1 [29]", "result": "Active"}, {"measurement": "inhibition", "setting": "Huh-7 [30]", "result": "Active"}, {"measurement": "fold change (FC)", "setting": "[31]", "result": 0.64}, {"measurement": "fold change (FC)", "setting": "[32]", "result": 0.85}]}]}
